Test results published in patent US8148392B2, “2-indolyl imidazo [4,5-d] phenanthroline derivatives and their use in the treatment of cancer” (Lorus Therapeutics Inc., priority 2005, dated 2012).
Entries after “also recorded” stand apart in the source; their conditions may differ. Where two headings read alike, the source gives them in different places.

Experiments:
[1] = test system: human colon carcinoma HT-29 cells; assay: XTT cell proliferation assay, HT-29; type: cell-based; conditions: Homo sapiens, HT-29, XTT, read-out: IC50
Experimental: The ability of compounds of Formula I to inhibit the proliferation of human colon carcinoma HT-29 cells was tested as follows. HT-29 colon carcinoma cells used in this example and subsequent examples were maintained as a monolayer in a growth medium; McCoy's 5A modified medium (Sigma, St. Louis, Mo.), supplemented with 2 mM L-glutamine (Gibco, Grand Island, N.Y.), 10% fetal bovine serum (FBS) (Multicell, WISENT Inc. St-Bruno, QC), antibiotic-antimycotic (Multicell), at 37° C. in a 5% CO2-humidified incubator. Cells were transferred onto 150 mm tissue culture plates and grown until sub-confluency (70-80%) prior to their use. The in vitro antiproliferative activity of compounds was evaluated by incubating the cells with varying concentrations of the compounds as shown in Table 1 for 6-7 days. The efficacy of these compounds in this cell proliferation assay was measured based in the ability of live cells to reduce the tetrazolium salt XTT to orange colored compounds of formazan (XTT cell proliferation kit II, Roche Applied Science, Montreal, QC).
The ability of compounds of Formula I to inhibit the proliferation of human colon carcinoma HT-29 cells was tested as described above in Example 13.
Cell growth inhibition IC50 (μM) by compounds of Formula I was tested on various cancer cell types by XTT cell proliferation assay. The growth inhibitory effects of the compounds of Formula I as shown below for the melanoma cell line SK-MEL-2 were reproducible by Lorus Therapeutics Inc.

HT-29 cells = assay: Effect of exogenous metals on growth inhibition of HT-29 cells (XTT); type: cell-based, human; conditions: HT-29, 5 days
Experimental: To determine whether metal chelation is involved in the growth inhibitory activity of compounds of Formula I, exogenous metals (ZnCl2, FeCl2.4H2O, FeCl3.4H2O, MgCl2, at 100 μM) were incubated with HT-29 cells, simultaneously with control vehicle DMSO, compound 3 (5 μM), or compound 13 (25 μM), for 5 days. […] Growth inhibition by compound 13 is predicted to occur through a different mechanism than compound 3.
To determine whether chelation of copper is involved in the growth inhibitory activity of compounds of Formula I, HT-29 cells were incubated with up to 5 μM of compound 3, in the presence or absence of 25 μM CuSO4.5H20 for 5 days.
To determine whether metal chelation is involved in the growth inhibitory activity of compound 3, various concentrations of exogenous metals were incubated with HT-29 cells, simultaneously with various concentrations of compound 3, for 5 days. The exogenous metals tested were: ZnCl2 (zinc), CuSO4.5H20 (copper), FeCl2 (iron II), FeCl3.4H20 (iron III), MgCl2 (magnesium), and CaCl2.2H20 (calcium). HT-29 cells (4×10^3/well) in 100 μL volume of the growth medium were seeded in 96-well cell culture plates and incubated overnight at 37° C. The medium was removed and replaced with a total volume of 100 μl growth medium containing concentrations of metal ions as shown in FIG. 5 with compound 3 or 0.1% DMSO vehicle control. After incubation of the cells at 37° C. for 5 days, cell viability was quantitated using the XTT (sodium 3′-[1-(phenylamino-carbonyl)-3,4-tetrazolium}-bis (4-methoxy-6-nitro) benzene sulfonic acid hydrate) calorimetric assay (Roche Applied Science, Penzberg, Germany). XTT labeling reagent (1 mg/mL) was mixed with electron-coupling reagent, following the manufacturer's instructions, and 50 μl of the mixture was added directly to the cells cultured in 100 μl growth medium. The plates were further incubated at 37° C. for 4 hours and the absorbance of each well was measured by a multi-well spectrophotometer (Bio-Tek Instruments Inc.) at 460 nm. The data were adjusted relative to the blank, and were expressed as % of cell growth compared to the DMSO control.
To determine the ability of compounds 5 and 7 to chelate metals in cells, exogenous metals were added to HT-29 cells, simultaneously with various concentrations of compounds 5 and 7. Briefly, HT-29 cells were treated with various concentrations compounds 5 and 7, plus or minus copper (25 μM CuSO4.5H20) or zinc (100 μM of ZnCl2), for 5 days. Cell viability was determined by XTT assay. The effects of copper and zinc on growth inhibition of HT-29 cells are shown in FIG. 6A for compound 5 and in FIG. 6B for compound 7.
Effect of metal ion supplements on compound 3-mediated cell growth inhibition of HT-29 cells was examined by XTT cell proliferation assay.

[2] = test system: human lung NCI-H460 cells; assay: Large-cell lung carcinoma NCI-H460 xenograft model, tumour growth; type: in vivo, CD-1 female nude mice; conditions: Lutrol (i.p.), lipid-based (i.v.) or water-based (i.p.) formulations
Experimental: The ability of compounds of Formula I to inhibit large-cell lung tumour growth in vivo was tested by determining the efficacy of compound 3 in a xenograft model as described below. Compound 3 was tested as a lipid-based formulation having the following composition: distearoylphosphatidylethanolamine-polyethylene glycol 2000 (DSPE-PEG/5% mole) and egg phosphatidylcoline (ePC/95% mole). The formulation was prepared as follows: Stock solutions of compound 3 and lipid (ePC and DSPE-PEG) were prepared in DMF. Specific volumes of the stock solutions of compound 3 and lipid were then mixed in order to achieve a final lipid concentration of 25 mg/mL (ePC:DSPE-PEG=95:5 (mol %) and a compound 3 to total lipid ratio of 1:10 (w/w). The mixture was stirred for four hours, thoroughly dried under nitrogen and left overnight under vacuum. HEPES buffer saline (HBS 0.01 M, pH=7.4) warmed to 60° C. was then added in order to rehydrate the dried film. The solutions were vortexed, stirred for 48 hours at room temperature and sonicated for two and half hours. The formulation was then centrifuged at 1000 rpm for 5 minutes to remove any free compound 3.
CD-1 female nude mice (6-7 weeks, 7 mice per treatment group) were injected […] with human lung NCI-H460 cells (3×10^6 cells in 0.1 ml PBS) subcutaneously. Treatment of the mice with vehicle or compound 3 was initiated 5 days post-inoculation (size of tumours=20-40 mm^3) for 7-day cycles of five days followed by a 2 day break for the duration of the experiment (35 days). Mice were treated with 80 mg/kg/d for the first week followed by 40 mg/kg/d until the end of the experiment. The size of the tumours was measured over the course of the experiment using calipers, and the weight of the tumours was measured after the animals were sacrificed.
The ability of compounds 3, 5, and 7 to inhibit large-cell lung carcinoma cell growth in vivo was tested in the mouse xenograft model as described in Example 27. The compounds were tested as Lutrol formulations (administered i.p.), lipid-based formulations micelles (administered i.v.), or water-based formulations (administered i.p.). The vehicle controls included Lutrol control (administered i.p.), lipid micelle control (administered i.v.), and water control (administered i.p.). Lutrol formulations contained 15% Lutrol and 10% DMSO. The composition of the lipid-based formulations and preparation of same was as described in Example 27 above.

[3] = type: in vivo; conditions: i.p. twice per day for 1 week
Experimental: To test the sub-acute toxicity of the compounds of Formula I, female mice were injected with the compounds and toxicity was evaluated based on mortality, changes in behaviour, appearance and weight. Briefly, ICR normal female mice (5-6 weeks old; n=33) weighing about 0.020 kg in body weight, were injected with various compounds at 100 mg/kg and 50 mg/kg or with the vehicle alone (Lutrol (M68, micronized)). Groups of 3 ICR female mice were injected with one intra-peritoneal (i.p.) injection of 250 μl of each compound at 4.0 mg/ml twice per day (100 mg/kg) for 1 week (Group I); or with one intra-peritoneal (i.p.) injection of 250 μl of each compound at 2.0 mg/ml twice per day (50 mg/kg) for 1 week (Group II), or with one intra-peritoneal (i.p.) injection of 250 μl of lutrol vehicle control twice per day for 1 week (Control Group).
The compounds to be tested were prepared to provide enough for one week at concentrations of 4.0 mg/ml and 2.0 mg/ml. Briefly, 50 mg of each compound was dissolved in 1.25 ml of 100% DMSO and diluted with 6.25 ml of Lutrol (30% in water) and 5 ml water, to prepare a solution of 4 mg/ml compound in 15% Lutrol in water. Next, 4 ml of each prepared solution was further diluted with 4 ml of 15% Lutrol in water to provide the 2.0 mg/ml solution of each compound. For the vehicle control solution, 8 ml of 15% Lutrol in water was prepared. Compounds at concentrations of 4.0 mg/ml and 2.0 mg/ml and the vehicle control were administered as described above.

supercoiled plasmid DNA = assay: In vitro DNA cleavage assay; type: biochemical; conditions: 25 μM compound, 10 μM CuSO4, 100 μM ascorbic acid, 37° C., 30 minutes
Experimental: Compound 3 was tested for its ability to cleave plasmid DNA in vitro in the presence of copper and the reducing agent ascorbic acid. Experiments were performed in a total of 20 μl, containing 10 mM NaH2PO4/Na2HPO4 buffer (pH 6.7), 1 μg of supercoiled plasmid DNA, 100 μM ascorbic acid, 25 μM drug compound (or vehicle), and 10 μM of CuSO4.5H20. The reaction mixture was incubated at 37° C. for 30 minutes, and 1 μl of 0.1 M EDTA was added to terminate the reaction. DNA loading buffer was added, and reactions were run at 80V for 80 minutes on a 1% agarose gel containing ethidium bromide.
To determine whether ions other than copper could suffice, DNA cleavage reactions were also carried out in the presence of zinc or iron. Reactions were performed as above, in the presence of 25 μM of CuSO4.5H20, ZnCl2, or FeCl2.4H20. […] Note that copper alone in the presence of ascorbic acid can shift the ratio of supercoiled DNA to open circular DNA.
To determine the ratios of compound to copper at which compound 3 was effective, reactions were performed as in FIG. 22A. The ratios of compound 3 to copper of 3:1, 2.5:1, 2:1, 1.5:1, and 1:1, as shown in FIG. 23 were achieved by maintaining the concentration of Cu constant at 10 μM, and varying the concentration of compound 3. The ratios of compound 3 to Cu of 1:1.5, 1:2, 1:2.5, and 1:3, were achieved by maintaining the concentration of compound 3 constant at 10 μM, and varying the concentration of copper.
Other compounds of Formula I, compounds 5, 7, 9 and 13 were also tested for their ability to cleave DNA at a ratio of 2.5:1 to copper (FIG. 23). Ratios of compound 3:copper as indicated, plus concentrations of copper in the absence of compound 3 were used in the DNA cleavage assay as described above.

[4] = test system: normal cell lines PrEC, HMEC, WI38 and cancer cell lines DU145, MDA-MB-435, HT-29; assay: Cancer cell selectivity, IC90 in normal versus cancer cell lines (XTT); type: cell-based, human; conditions: average IC90 of all normal / average IC90 of all cancer cell lines, 6 to 7 days
Text: An exemplary method of assessing the differential sensitivity between normal and cancer cells for a compound has been described by Vassilev et al. (Anti-Cancer Drug Design (2001) 16:7). This method involves the comparison of IC90 values, i.e. the molar concentration of a test compound required to cause 90% growth inhibition of exponentially growing cells. Thus, the IC90 values for candidate compounds can be evaluated in various cancer cell lines (such as those outlined above) and normal cells (such as HUVEC and/or WI38 cells) and compared. IC90 values can be measured using a variety of standard techniques as known in the art. Cancer cell selectivity is calculated as a ratio between the average IC90 for all normal cell lines and the average IC90 for all cancer cell lines. Compounds with an IC90 ratio (normal/cancer) of >4 are considered to be selective for cancer cells (L. T. Vassilev et al., Anti-cancer Drug Design, 2001, 16: 7-17).
The normal cells lines used were PrEC (prostate), HMEC (breast), and WI38 (lung fibroblast) cell lines and the cancer cells lines were DU145 (prostate), MDA-MB-435 (breast), HT-29 (colon). IC90 values were also determined for the controls doxorubicin and etoposide. The cells were cultured as generally described in Example 13. Various concentrations of the compounds were incubated with the cells for 6 to 7 days, and the number of proliferating cells was measured using the XTT assay. Cancer cell selectivity was calculated as a ratio between the average IC90 for all normal and the average IC90 for all cancer cell lines.

Cc1[nH]c2ccc(Cl)cc2c1-c1nc2c3cccnc3c3ncccc3c2[nH]1 [Compound 5]
IC50 ([1]; 6-7 days, Table 3): 350 nM
IC50 ([1]; as Example 13, Table 7): 0.35 µg/mL
effect of exogenous copper on growth inhibition (HT-29 cells; 25 μM CuSO4, low concentrations of compound (less than 2 μM)): copper impaired the activity only at low concentrations
effect of exogenous zinc on growth inhibition (HT-29 cells; ZnCl2 (100 μM)): zinc impaired the growth inhibitory activities
tumour size and weight [2]: able to decrease the size (FIG. 16A) and weight (FIG. 16B) of tumours

c1ccc2c(-c3nc4c5cccnc5c5ncccc5c4[nH]3)c(-c3ccncc3)[nH]c2c1 [Compound 11]
IC50 ([1]; 6-7 days, Table 3): > 2500 nM
IC50 ([1]; as Example 13, Table 7): > 2.5 µg/mL
Sub-acute toxicity ([3]; 50 mg/Kg): −
Sub-acute toxicity ([3]; 100 mg/Kg): +

c1ccc2c(-c3nc4c5cccnc5c5ncccc5c4[nH]3)c(CN3CCCCC3)[nH]c2c1 [Compound 12]
IC50 ([1]; 6-7 days, Table 3): 280 nM
IC50 ([1]; as Example 13, Table 7): 0.28 µg/mL
Sub-acute toxicity ([3]; 50 mg/Kg): −
Sub-acute toxicity ([3]; 100 mg/Kg): +
cleavage of plasmid DNA (supercoiled plasmid DNA): capable of cleaving DNA

Cc1[nH]c2ccccc2c1-c1nc2c3ccccc3c3ccccc3c2[nH]1 [Compound 13, reference compound]
effect of exogenous metals on activity of the negative control (HT-29 cells; compound 13 25 μM): None of the metals had any effect; also recorded: Copper had no effect on growth inhibition
cleavage of plasmid DNA (supercoiled plasmid DNA): unable to cleave DNA

COc1cccc2c1C(=O)c1c(O)c3c(c(O)c1C2=O)C[C@@](O)(C(=O)CO)C[C@@H]3O[C@H]1C[C@H](N)[C@H](O)[C@H](C)O1 [Doxorubicin, doxorubicin, reference compound]
Normal/cancer IC90 ratio [4]: 5.6

COc1cc([C@@H]2c3cc4c(cc3[C@@H](O[C@@H]3O[C@@H]5CO[C@@H](C)O[C@H]5[C@H](O)[C@H]3O)[C@H]3COC(=O)[C@H]23)OCO4)cc(OC)c1O [Etoposide, etoposide, reference compound]
Normal/cancer IC90 ratio [4]: >5.0
